{"source": "patent US10603357B2", "about": "“Therapeutic TREM-1 peptides” (Universite de Lorraine, priority 2004, dated 2020)", "type_in_all_cases": "in vivo, mouse", "key": {"[1]": {"tested_on": "mice", "assay": "DSS colitis model in mice, hP5 (Example 7)", "method": "On day 0 of the study, the water supply was removed and replaced with 3% Dextran Sulfate Sodium (DSS) From day 0 to day 6, this solution was the only source of fluids. Water was administered for the rest of the experiment (day 7-11). Healthy controls received water only.\nFrom day 3 to day 10 mice were treated with either hP5, or a sequence-scrambled control peptide. Peptides were dissolved in DMSO at 10 mg/ml and stored at +4° C. Before administration, the stock solution was diluted 1:10 in water 10% Solutol® HS 15 (BASF). Final vehicle concentrations: 1% DMSO, 10% solutol in water. 200 μl of these freshly prepared solutions of hP5, its scrambled control or vehicle were injected intraperitoneally with a 25 G needle.\nAnimals were weighted daily and monitored on days 3, 4, 5, 6, 7 and 10 for rectal bleeding and stool consistency. For each group, the disease activity index (DAI) was determined by evaluating changes in weight, stool consistency and presence of gross blood during the study, as described below:\nTo determine the presence of occult blood in stool, a pea-sized stool sample was placed on a slide. Then two drops of reagent (Hemocult Sensa, Beckman Coulter) were placed onto the stool sample on the slide and a change of colour was observed. The presence of occult blood was graded using a score of 0 for no colour; 1 for a very light blue (+/−) colour taking over 30 seconds to appear, 2 for a blue colour developing in […] (+); 3 for an immediate change in colour (++) and 4 for gross blood observable on the slide.\nOn day 11 mice were euthanized by cervical dislocation to allow colon length evaluation. An incision was done in the abdomen to expose the colon. The stool in the colon was removed flushing with saline. The entire colon from cecum to anus was removed and the length was measured and reported as colon length (cm).\nData were analyzed using Graph Pad Prism. Results are given as means±standard error of the mean. The BW score, stool score and blood score were analyzed using two-way ANOVA test, Bonferroni post test. Colon length was analysed using one-way ANOVA, Dunn's post test. *P≤0.05; **P≤0.01; ***P≤0.001"}, "[2]": {"tested_on": "BALB/c mice", "assay": "endotoxin-induced septic shock in mice, hP5 (Example 5)", "settings": "200 microliters peptide i.p. at −1 h, 0 h, +4 h, 200 microg LPS i.p., 15 mice per group", "method": "Septic shock was induced in male Balb/c mice (n=15/group) with […] of LPS as described in Material and Methods. hP5 peptide or control were administered at the following time points: −1 h, 0 h, +1 h+4 h. Mortality was followed twice a day for 7 days. Data were analysed using GraphPad Prism Survival curve analysis.\nFor the experiment, male BALB/c mice (19-21 g) were randomly grouped (15 mice per group) and injected intraperitoneally (i.p.) with 200 microg of LPS from E. coli 0111:B4 (Sigma). A blinded investigator performed all injections. 200 microliters of TREM-1 peptides dissolved in water 10% DMSO, 9% Solutol were administered intraperitoneally at −1 h, 0 h, +1 h, +4 h prior and after LPS injection. Viability of treated mice was monitored twice a day for 7 days."}, "[3]": {"tested_on": "C57BL/6 mice", "assay": "Cecal Ligation and Puncture model in mice, hP5 (Example 6)", "settings": "200 μl i.p. at −1 h, 0 h, +4 h and +24 hours; n=15/group", "method": "Mortality was followed twice a day for 10 days. Data were analyzed using GraphPad Prism Survival curve analysis.\nFor the experiment the mice underwent a standardized preparation for laparotomy (anaesthesia with 2% inhaled isoflurane in oxygen, shaving with animal clippers, alcohol scrub). A 1 cm incision was made on the midline. The cecum was exposed and will be tightly ligated at 50-80% over its base with a 4-0 silk suture avoiding bowel obstruction. The cecum was then punctured once with a 23G needle. The cecum was gently squeezed until feces be just visible through the puncture, and placed again in the abdominal cavity. The incision was thereafter be closed with a 4-0 silk. 200 μl of hP5 or its scrambled peptide control were freshly dissolved in water 10% DMSO, 9% solutol and injected intraperitoneally with a 22 G needle at the following time points: −1, 0, +4, +24. No fluid resuscitation was administered.\nSurvival and Moribundity were observed twice a day for 10 days."}}}
{"sequence": "LQVEDSGLYQCVIYQPP (listed as Homo sapiens) [hP5]", "values": [{"measurement": "Disease Activity Index (DAI) score", "setting": "[1]; 3% DSS day 0-6, peptide i.p. daily from day 3, day 5, mean ± standard error", "result": "1.95±0.170"}, {"measurement": "DAI inhibition compared to DSS+vehicle or DSS+scrambled peptide", "setting": "[1]; day 5", "result": "~50", "unit": "%"}, {"measurement": "Stool score (stool consistency)", "setting": "[1]; day 10, mean ± standard error", "result": "0.71±0.474"}, {"measurement": "blood score (haemoccult / gross blood)", "setting": "[1]; day 10, mean ± standard error", "result": "0.43±0.202"}, {"measurement": "weight loss, expressed as a score", "setting": "[1]; day 10, mean ± standard error", "result": "2.00±0.436"}, {"measurement": "colon length", "setting": "[1]; day 11, mean ± standard error", "result": "7.41±0.237", "unit": "cm"}, {"measurement": "animals alive 7 days after LPS injection", "setting": "[2]", "result": 80, "unit": "%"}, {"measurement": "mice alive at 10 days after CLP", "setting": "[3]", "result": 66.6, "unit": "%"}, {"measurement": "mice surviving at 72 hours after CLP", "setting": "[3]", "result": 73.3, "unit": "%"}]}
